Test results: ChEMBL document CHEMBL1201862, “PubChem BioAssay data set” (2004)
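Values below derive from 48-hour exposures of cells grown in 96-well plates, with endpoints linearly interpolated between the two concentrations bracketing the appropriate inhibition level. Here, GI50 denotes the concentration required for 50% inhibition of growth.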 Activity calls are given as the source filed them. Cut-off read from the data, not from the text of the source: active = GI50 up to about 1.1 µM and inactive = higher.

Legend:
Assay in all cases: growth of human tumour cells (NCI), 48 h
[1] = test system: DLD-1
[2] = test system: HOP-18
[3] = test system: DMS-273
[4] = test system: SNB-78
[5] = test system: DMS-114
[6] = test system: RXF 631
[7] = test system: LXFL 529
[8] = test system: XF498

Measured: GI50

CCOP(=O)(OCC)C1CCCOC1=O (centres undefined)
inactive: [1] > 100 µM | [2] > 100 µM | [3] > 100 µM | [4] > 100 µM | [5] > 100 µM | [6] > 100 µM | [7] > 100 µM | [8] > 100 µM

CC1OC(OCC2COC(O)(Oc3c(-c4ccc(O)c(O)c4)oc4cc(O)cc(O)c4c3=O)C(O)C2O)C(O)C(O)C1O (centres undefined)
inactive: [1] > 100 µM | [2] > 100 µM | [3] > 100 µM | [4] > 100 µM | [5] > 100 µM | [6] > 100 µM | [7] > 100 µM | [8] > 100 µM

COc1ccc(C2ON(c3ccccn3)CC=C2C)cc1 (centres undefined)
inactive: [1] > 100 µM | [2] > 100 µM | [3] > 100 µM | [4] > 100 µM | [5] > 100 µM | [6] > 100 µM | [7] > 100 µM | [8] > 100 µM
